Source: ChEMBL document CHEMBL1153292, “Atropisomeric small molecule Bcl-2 ligands: determination of bioactive conformation” (Bioorg Med Chem Lett, 2009)
pIC50: −log10 of the molar value.

What follows are compounds tested against Apoptosis regulator Bcl-2 (Homo sapiens, UniProt P10415) (assay: Inhibition of GST fused Bcl-2 binding to biotinylated 16 mer BH3 peptide by HTRF-LANCE assay).
Chain of Apoptosis regulator Bcl-2 (P10415 whole entry, the tested form may be a part): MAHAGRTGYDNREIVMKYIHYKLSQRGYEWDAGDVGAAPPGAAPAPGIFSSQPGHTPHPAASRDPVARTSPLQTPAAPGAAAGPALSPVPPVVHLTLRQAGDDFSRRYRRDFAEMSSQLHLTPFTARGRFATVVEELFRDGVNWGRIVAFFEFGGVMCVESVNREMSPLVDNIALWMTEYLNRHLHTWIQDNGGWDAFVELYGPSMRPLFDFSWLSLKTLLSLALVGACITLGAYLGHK
With Cc1cccc(-n2nc(C(=O)N(c3ccccc3)c3ccccc3)cc2C)c1C(=O)N1Cc2ccccc2C[C@@H]1CO (atropisomer aR; form 2) the pIC50 was 5.21.
CCCCN(CCCC)C(=O)c1nn(-c2cccc(C)c2C(=O)N2Cc3ccccc3C[C@H]2CN)c(C)c1Cl was tested, and the pIC50 was 7.38.
Work on Cc1cccc(-n2nc(C(=O)N(c3ccccc3)c3ccccc3)cc2C)c1C(=O)N1Cc2ccccc2C[C@H]1CO (atropisomer aS) yielded a pIC50 of 6.68.
With Cc1cccc(-n2nc(C(=O)N(c3ccccc3)c3ccccc3)cc2C)c1C(=O)N1Cc2ccccc2CC1CO (configuration not stated) the pIC50 was 6.22.
With Cc1cccc(-n2nc(C(=O)N(c3ccccc3)c3ccccc3)cc2C)c1C(=O)N1Cc2ccccc2C[C@@H]1CO (atropisomer aR; form 3) the pIC50 was 6.41.
In the case of Cc1cccc(-n2nc(C(=O)N(c3ccccc3)c3ccccc3)cc2C)c1C(=O)N1Cc2ccccc2C[C@@H]1CO (atropisomer aR; form 1), the pIC50 was 5.96.
CCCCN(CCCC)C(=O)c1cc(C)n(-c2cccc(C)c2C(=O)N2Cc3ccccc3C[C@H]2CN)n1 was tested, and the pIC50 was 6.76.
